Laboratory results as given in the NIST ThermoML archive (doi:10.1016/j.jct.2019.02.031).

Experiment: xn = mol fraction of the nth substance listed
Conditions: 101 kPa, Liquid; for viscosity: Falling or rolling sphere viscometry; for mass density: Vibrating tube method

Cn1cc[n+](CCC[N+](C)(C)C)c1.N#C[N-]C#N.N#C[N-]C#N + CC(C)O
Conditions | mass density [kg/m3] | viscosity [mPa·s]
283.15 K, x1 = 0.1001 | 905.3 | 12.27
283.15 K, x1 = 0.2 | 978.56 | 31.98
283.15 K, x1 = 0.2999 | 1028.83 | 71.59
283.15 K, x1 = 0.4 | 1065.91 | 152.1
283.15 K, x1 = 0.5001 | 1094.18 | 290.4
283.15 K, x1 = 0.5998 | 1114.84 | 452
283.15 K, x1 = 0.7002 | 1130.38 | 742.9
283.15 K, x1 = 0.8001 | 1142.95 | 1216
283.15 K, x1 = 0.8985 | 1153.75 | 2301
283.15 K, x1 = 1 | 1162.82 | 4998
288.15 K, x1 = 0.1001 | 901.8 | 10.23
288.15 K, x1 = 0.2 | 975.32 | 25.55
288.15 K, x1 = 0.2999 | 1025.72 | 54.85
288.15 K, x1 = 0.4 | 1062.7 | 110.5
288.15 K, x1 = 0.5001 | 1091.1 | 204.6
288.15 K, x1 = 0.5998 | 1111.98 | 303.9
288.15 K, x1 = 0.7002 | 1127.66 | 493.5
288.15 K, x1 = 0.8001 | 1140.22 | 749.8
288.15 K, x1 = 0.8985 | 1150.85 | 1346
288.15 K, x1 = 1 | 1159.76 | 2736
293.15 K, x1 = 0.1001 | 898.28 | 8.914
293.15 K, x1 = 0.2 | 972.09 | 21.4
293.15 K, x1 = 0.2999 | 1022.6 | 44.54
293.15 K, x1 = 0.4 | 1059.76 | 85.03
293.15 K, x1 = 0.5001 | 1088.04 | 153
293.15 K, x1 = 0.5998 | 1108.93 | 219.1
293.15 K, x1 = 0.7002 | 1124.71 | 341.4
293.15 K, x1 = 0.8001 | 1137.27 | 498.6
293.15 K, x1 = 0.8985 | 1147.89 | 843.4
293.15 K, x1 = 1 | 1156.74 | 1608
298.15 K, x1 = 0.1001 | 894.74 | 7.619
298.15 K, x1 = 0.2 | 968.65 | 18.02
298.15 K, x1 = 0.2999 | 1019.48 | 35.75
298.15 K, x1 = 0.4 | 1056.42 | 66.38
298.15 K, x1 = 0.5001 | 1084.68 | 116.5
298.15 K, x1 = 0.5998 | 1105.58 | 163
298.15 K, x1 = 0.7002 | 1121.85 | 245.1
298.15 K, x1 = 0.8001 | 1134.38 | 342.8
298.15 K, x1 = 0.8985 | 1144.95 | 558.1
298.15 K, x1 = 1 | 1153.73 | 1007
303.15 K, x1 = 0.1001 | 891.18 | 6.585
303.15 K, x1 = 0.2 | 965.32 | 15.28
303.15 K, x1 = 0.2999 | 1016.38 | 29.22
303.15 K, x1 = 0.4 | 1053.15 | 53.45
303.15 K, x1 = 0.5001 | 1081.45 | 90.62
303.15 K, x1 = 0.5998 | 1102.88 | 124.3
303.15 K, x1 = 0.7002 | 1118.91 | 181.3
303.15 K, x1 = 0.8001 | 1131.5 | 245.7
303.15 K, x1 = 0.8985 | 1141.97 | 387.2
303.15 K, x1 = 1 | 1150.76 | 662.9
308.15 K, x1 = 0.1001 | 887.61 | 5.755
308.15 K, x1 = 0.2 | 962.09 | 13.11
308.15 K, x1 = 0.2999 | 1013.25 | 24.31
308.15 K, x1 = 0.4 | 1050.12 | 43.61
308.15 K, x1 = 0.5001 | 1078.35 | 71.82
308.15 K, x1 = 0.5998 | 1099.87 | 97.07
308.15 K, x1 = 0.7002 | 1116.01 | 137.7
308.15 K, x1 = 0.8001 | 1128.64 | 182
308.15 K, x1 = 0.8985 | 1139.04 | 278.9
308.15 K, x1 = 1 | 1147.8 | 455.4
313.15 K, x1 = 0.1001 | 884.01 | 5.069
313.15 K, x1 = 0.2 | 959.16 | 11.51
313.15 K, x1 = 0.2999 | 1009.82 | 20.53
313.15 K, x1 = 0.4 | 1046.89 | 36.31
313.15 K, x1 = 0.5001 | 1075.26 | 58.15
313.15 K, x1 = 0.5998 | 1096.85 | 77.62
313.15 K, x1 = 0.7002 | 1113.12 | 107.2
313.15 K, x1 = 0.8001 | 1125.89 | 138.5
313.15 K, x1 = 0.8985 | 1136.19 | 207.8
313.15 K, x1 = 1 | 1144.89 | 324.6
318.15 K, x1 = 0.1001 | 880.4 | 4.515
318.15 K, x1 = 0.2 | 955.64 | 10.08
318.15 K, x1 = 0.2999 | 1006.35 | 17.42
318.15 K, x1 = 0.4 | 1043.68 | 30.62
318.15 K, x1 = 0.5001 | 1072.32 | 48.57
318.15 K, x1 = 0.5998 | 1094.09 | 63.07
318.15 K, x1 = 0.7002 | 1110.26 | 85.59
318.15 K, x1 = 0.8001 | 1123.09 | 109
318.15 K, x1 = 0.8985 | 1133.33 | 160.3
318.15 K, x1 = 1 | 1142 | 239.7
323.15 K, x1 = 0.1001 | 876.76 | 4.052
323.15 K, x1 = 0.2 | 952.12 | 8.828
323.15 K, x1 = 0.2999 | 1002.86 | 15.18
323.15 K, x1 = 0.4 | 1040.46 | 26.11
323.15 K, x1 = 0.5001 | 1069.5 | 40.73
323.15 K, x1 = 0.5998 | 1091.18 | 52.16
323.15 K, x1 = 0.7002 | 1107.31 | 70.03
323.15 K, x1 = 0.8001 | 1120.31 | 86.93
323.15 K, x1 = 0.8985 | 1130.45 | 125.4
323.15 K, x1 = 1 | 1139.11 | 181.2
328.15 K, x1 = 0.1001 | 873.09 | 3.672
328.15 K, x1 = 0.2 | 948.69 | 7.836
328.15 K, x1 = 0.2999 | 1000.05 | 13.38
328.15 K, x1 = 0.4 | 1037.56 | 22.57
328.15 K, x1 = 0.5001 | 1066.62 | 34.87
328.15 K, x1 = 0.5998 | 1088.47 | 45.82
328.15 K, x1 = 0.7002 | 1104.35 | 58.38
328.15 K, x1 = 0.8001 | 1117.52 | 71.22
328.15 K, x1 = 0.8985 | 1127.59 | 101.4
328.15 K, x1 = 1 | 1136.24 | 141.1
333.15 K, x1 = 0.1001 | 869.4 | 3.36
333.15 K, x1 = 0.2 | 945.77 | 6.989
333.15 K, x1 = 0.2999 | 996.95 | 11.94
333.15 K, x1 = 0.4 | 1034.62 | 19.89
333.15 K, x1 = 0.5001 | 1063.89 | 29.99
333.15 K, x1 = 0.5998 | 1085.59 | 39.36
333.15 K, x1 = 0.7002 | 1101.65 | 49.32
333.15 K, x1 = 0.8001 | 1114.82 | 59.34
333.15 K, x1 = 0.8985 | 1124.75 | 83.14
333.15 K, x1 = 1 | 1133.4 | 111.9
